The source of these data is publication PMC10385162 (Viruses, 2023).

The structures appear in SMILES notation. Values joined by “and” are separate entries in the source; they are usually repeats but may differ in a detail not shown here. Equal entries are not always repeated. Where two headings read alike, the source gives them in different places.

Series [1] concerns the target HIV-1 reverse transcriptase (RT)-associated RNase H (Human immunodeficiency virus type 1 group M subtype B, UniProt P03366). Put plainly: HIV-1 RT-associated RNase H inhibition assay. The following applies: for IC50 / IC50 HIV-1 RNase H: concentration required to reduce HIV-1 RT-associated RNase H activity by 50%, mean of three independent experiments ± SD; for Percentage of residual enzymatic activity at the highest concentration tested: HIV-1 RNase H. The series is classed as biochemical.

For series [2], the target named is SARS-CoV-2 nsp14/nsp10 ExoN (Severe acute respiratory syndrome coronavirus 2, UniProt P0DTD1). Put plainly: SARS-CoV-2 nsp14 exonuclease (ExoN) activity assay, HPLC, RNA22 substrate. The series is classed as biochemical. The following applies: for inhibition at 100 µM: read-out: Inhibition of ExoN activity.
Series [3] concerns SARS-CoV-2 WA1/2020 strain. The series is classed as cell-based.
Series [4] deals with full-length SARS-CoV-2 nsp14 MTase (Severe acute respiratory syndrome coronavirus 2, UniProt P0DTD1). Put plainly: SARS-CoV-2 nsp14 N7-methyltransferase activity assay. The series is classed as biochemical. The following applies: absence vs presence of inhibitor; GpppA substrate, [3H]-SAM.
For a further series, the system named is SARS-CoV-2 WA1/2020. Put plainly: Plaque reduction assay in Vero E6 ACE2 cells. The following applies: for EC50 fold higher compared to 1c: plaque reduction assay. The series is classed as cell-based.

As to `O=C(N/N=C/c1ccc(O)c([N+](=O)[O-])c1)c1cc2ccccc2cc1O` [1a, (E)-N’-(4-Hydroxy-3-nitrobenzylidene)-3-hydroxy-2-naphthohydrazide], the concentration for half-maximal inhibition (IC50) in series [1] (read-out: IC50 HIV-1 RNase H) came out at 69.6 ± 8.46 µM.
The same measure, in the same setting: then `COc1cc(/C=N/NC(=O)c2cc3ccccc3cc2O)cc([N+](=O)[O-])c1O` [1b, (E)-N′-(4-Hydroxy-5-methoxy-3-nitrobenzylidene)-3-hydroxy-2-naphthohydrazide], with 7 to 8 µM and 7.16 µM.
`O=C(N/N=C/c1cc(O)c(O)c([N+](=O)[O-])c1)c1cc2ccccc2cc1O` [1c, (E)-N′-(3,4-Dihydroxy-5-nitrobenzylidene)-3-hydroxy-2-naphthohydrazide]: the IC50 in series [2] (RNA22 substrate, HPLC) is 2.2 µM; in series [1] (IC50 HIV-1 RNase H), 0.57 ± 0.04 µM. The “Inhibition of ExoN activity” value in series [2] (at 100 µM) is “complete inhibition”. In series [3] (12.5 µM, A549 ACE2+ cells, MOI 0.05), the “Effect on virus titers” value was “no measurable effect”. Also, the “Reduction in virus titers” value in series [3] (25 µM, 24 h post-infection) is reported as 6.4 fold; in series [3] (25 µM, 48 h post-infection), 7.8 fold; in series [3] (50 µM, 24 h post-infection) it was 78.5 fold; in series [3] (50 µM, 48 h post-infection), 48.9 fold. Moreover, the “Effect on nsp14 MTase activity (tritium incorporation)” value in series [4] is given as “no significant differences”. Further, the half-maximal effective concentration (EC50) with SARS-CoV-2 WA1/2020 (concentration required to reduce plaque number by 50%, 3 d, mean and SD of three independent experiments, read-out: EC50 anti-SARS-CoV-2 activity by plaque reduction assay) was 10.23 ± 0.01 µM.
As for `O=C(N/N=C/c1cc(O)ccc1O)c1cc2ccccc2cc1O` [1d], the IC50 in series [1] (read-out: IC50 HIV-1 RNase H) was found to be 35.9 ± 8.6 µM.
Still for that read-out and setting: next, `COc1ccc(/C=N/NC(=O)c2cc3ccccc3cc2O)c(O)c1O` [1e, (E)-N’-(2,3-Dihydroxy-4-methoxybenzylidene)-3-hydroxy-2-naphthohydrazide]: 1.02 ± 0.15 µM.
On the same count and under the same terms, next, `O=C(N/N=C/c1ccc(O)c(O)c1O)c1cc2ccccc2cc1O` [1f]: 0.93 ± 0.24 µM.
With `COc1ccc(/C=N/NC(=O)c2cc3ccccc3cc2O)cc1O` [1g], the “Percentage of residual enzymatic activity at the highest concentration tested” value in series [1] was 84%. In series [1] (read-out: IC50 HIV-1 RNase H), the IC50 is > 100 µM.
As for `O=C(N/N=C/c1ccc(O)cc1O)c1cc2ccccc2cc1O` [1h], in series [1] (read-out: IC50 HIV-1 RNase H), the IC50 came to 36.4 ± 10.5 µM.
On to `CN(C)c1ccc(/C=N/NC(=O)c2cc3ccccc3cc2O)cc1` [1i], for which the IC50 in series [1] (read-out: IC50 HIV-1 RNase H) was found to be 27.5 ± 2.65 µM.
For the molecule `CC(=O)Nc1ccc(/C=N/NC(=O)c2cc3ccccc3cc2O)cc1` [1j], in series [1], the “Percentage of residual enzymatic activity at the highest concentration tested” value is 91% and the “IC50 HIV-1 RNase H” value was “inactive”. Also, the IC50 in series [1] (read-out: IC50 HIV-1 RNase H) is > 100 µM.
Take `CCN(CC)c1ccc(/C=N/NC(=O)c2cc3ccccc3cc2O)cc1` [1k]: the IC50 in series [1] (read-out: IC50 HIV-1 RNase H) was 7 to 8 µM and 7.94 µM.
Molecule `CN1CCN(c2ccc(/C=N/NC(=O)c3cc4ccccc4cc3O)cc2)CC1` [1l, (E)-N’-[4-(N-Methylpiperazinyl)benzylidene]-3-hydroxy-2-naphthohydrazide] registered a melting point of 256 to 257 °C. For the same molecule, in series [1], the “Percentage of residual enzymatic activity at the highest concentration tested” value came to 70% and the “IC50 HIV-1 RNase H” value was “inactive”. In addition, the IC50 in series [1] (read-out: IC50 HIV-1 RNase H) was > 100 µM.
Turning to `O=C(N/N=C/c1cc(O)c(O)c([N+](=O)[O-])c1)c1ccccc1O` [2a, (E)-N′-(3,4-Dihydroxy-5-nitrobenzylidene)-2-hydroxybenzohydrazide], the melting point is 275 °C (dec.). Further, the inhibition at 100 µM in series [2] was ~65%. The molecule further showed an IC50 in series [1] (IC50 HIV-1 RNase H) of 14 ± 0.97 µM. Besides, in the series with SARS-CoV-2 WA1/2020, the “EC50 fold higher compared to 1c” value is 4.3 fold.
For `O=C(N/N=C/c1cc(O)c(O)c([N+](=O)[O-])c1)c1cccc(F)c1` [2b, (E)-N′-(3,4-Dihydroxy-5-nitrobenzylidene)-3-fluorobenzohydrazide], in that order: 251 to 252 °C (dec.), ~53%, 15.2 ± 1.35 µM and 3.4 fold.
With `O=C(N/N=C/c1cc(O)c(O)c([N+](=O)[O-])c1)c1cccnc1` [2c, (E)-N′-(3,4-Dihydroxy-5-nitrobenzylidene)-nicotinoylhydrazide], the melting point is 250 to 251 °C (dec.). Moreover, in series [2], the inhibition at 100 µM is ~37%. Besides, the IC50 in series [1] (IC50 HIV-1 RNase H) is 24.7 ± 3.89 µM. The “EC50 anti-SARS-CoV-2 activity by plaque reduction assay” value in the series on SARS-CoV-2 WA1/2020 (concentration required to reduce plaque number by 50%, 3 d, mean and SD of three independent experiments) is “inactive”.
Regarding `O=C(N/N=C/c1ccc(O)c(O)c1)c1cc2ccccc2cc1O` [Dynasore, (E)-N′-(3,4-dihydroxybenzylidene)-3-hydroxy-2-naphthohydrazide, reference compound], the IC50 in series [1] (read-out: IC50 HIV-1 RNase H) is 3.1 ± 0.52 µM.
Same read-out and setting: next, `CCOC(=O)C(=O)CC(=O)/C=C/c1cccn1Cc1ccc(F)cc1` [RDS1643, reference compound]: 10.8 ± 5.2 µM.
